Patent US6087119A, “Method for determining the catalytic activity of factor IXa” (Roche Diagnostics GmbH, priority 1996, dated 2000)
Like-named read-outs stand apart in the source and are kept apart here.

Legend:
[1] = target: native FIXa (human) (Homo sapiens, UniProt P00740); details: MeSO2-D-HHT-Gly-Arg-pNA
Source text: Influence of the pH on the Activity of rFIXa and Native FIXa in the Presence of Ethylene Glycol
1.02 mmol/l MeSO2 -D-HHT-Gly-Arg-pNA, MOC-D-Nle-Gly-Arg-pNA or MeSO2 -D-CHG-Gly-Arg-pNA
0.14 μmol/l native FIXa (human)

[2] = target: rFIXa (human) (Homo sapiens, UniProt P00740); assay: Influence of the pH on the activity of rFIXa in the presence of ethylene glycol; type: biochemical; set-up: coding for the FIX protease domain from amino acid position 181 to 415; Met (ATG start codon) (N); made in house; details: 25% ethylene glycol; for increase of cleavage rates: pH 7.0-10.0; for cleavage rate mA/min: rFIXa (human)
Source text: 0.28 μmol/l rFIXa (human)

Chain of native FIXa (human) (P00740 227-461 limits assumed): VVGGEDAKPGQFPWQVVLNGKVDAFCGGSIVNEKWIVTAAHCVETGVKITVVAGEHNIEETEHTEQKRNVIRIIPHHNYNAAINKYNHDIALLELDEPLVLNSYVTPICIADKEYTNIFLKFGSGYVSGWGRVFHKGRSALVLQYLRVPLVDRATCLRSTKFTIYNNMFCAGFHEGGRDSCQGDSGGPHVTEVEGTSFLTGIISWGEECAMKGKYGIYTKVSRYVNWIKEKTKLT
Chain of native FIXa (human) (P00740 47-191 partner limits assumed): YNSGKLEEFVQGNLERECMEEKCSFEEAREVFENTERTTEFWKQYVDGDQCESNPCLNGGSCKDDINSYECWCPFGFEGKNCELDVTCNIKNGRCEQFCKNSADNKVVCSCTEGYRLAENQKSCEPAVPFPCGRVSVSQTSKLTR
Chain of rFIXa (human) (P00740 227-461): as the sequence (P00740 227-461 limits assumed) above
Chain of rFIXa (human) (P00740 131-226): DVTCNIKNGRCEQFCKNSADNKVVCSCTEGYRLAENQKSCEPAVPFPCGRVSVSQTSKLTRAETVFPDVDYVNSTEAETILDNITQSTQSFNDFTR

In the case of `OCCO` [Ethylene glycol], the “cleavage rate mA/min” value ([1]; pH 7.0, 25% ethylene glycol) was 23.7 mA/min, the “cleavage rate mA/min” value ([1]; pH 7.5, 25% ethylene glycol) was 63.0 mA/min and the “cleavage rate mA/min” value ([1]; pH 8.0, 25% ethylene glycol) was 101.0 mA/min. For the same compound, the “cleavage rate mA/min” value ([1]; pH 8.25, 25% ethylene glycol) was 106.7 mA/min, the “cleavage rate mA/min” value ([1]; pH 8.5, 25% ethylene glycol) was 115.4 mA/min and the “cleavage rate mA/min” value ([1]; pH 8.75, 25% ethylene glycol) was 110.9 mA/min. For the same compound, the “cleavage rate mA/min” value ([1]; pH 9.0, 25% ethylene glycol) was 105.6 mA/min, the “cleavage rate mA/min” value ([1]; pH 9.5, 25% ethylene glycol) was 100.6 mA/min and the “cleavage rate mA/min” value ([1]; pH 10.0, 25% ethylene glycol) was 77.2 mA/min. The “increase of cleavage rates” value ([2]; substrate MOC-D-Nle-Gly-Arg-pNA) was 14 fold, the “increase of cleavage rates” value ([2]; substrate MeSO2-D-CHG-Gly-Arg-pNA) was 20 fold and the “increase of cleavage rates” value ([2]; substrate MeSO2-D-HHT-Gly-Arg-pNA) was 10 fold. For the same compound, the “cleavage rate mA/min” value ([2]; pH 7.0, MOC-D-Nle-Gly-Arg-pNA) was 31.5 mA/min, the “cleavage rate mA/min” value ([2]; pH 7.0, MeSO2-D-CHG-Gly-Arg-pNA) was 154.7 mA/min and the “cleavage rate mA/min” value ([2]; pH 7.0, MeSO2-D-HHT-Gly-Arg-pNA) was 56.5 mA/min. For the same compound, the “cleavage rate mA/min” value ([2]; pH 7.5, MOC-D-Nle-Gly-Arg-pNA) was 70.1 mA/min, the “cleavage rate mA/min” value ([2]; pH 7.5, MeSO2-D-CHG-Gly-Arg-pNA) was 289.8 mA/min and the “cleavage rate mA/min” value ([2]; pH 7.5, MeSO2-D-HHT-Gly-Arg-pNA) was 124.5 mA/min. The “cleavage rate mA/min” value ([2]; pH 8.0, MOC-D-Nle-Gly-Arg-pNA) was 99.7 mA/min, the “cleavage rate mA/min” value ([2]; pH 8.0, MeSO2-D-CHG-Gly-Arg-pNA) was 372.4 mA/min and the “cleavage rate mA/min” value ([2]; pH 8.0, MeSO2-D-HHT-Gly-Arg-pNA) was 173.6 mA/min. For the same compound, the “cleavage rate mA/min” value ([2]; pH 8.25, MOC-D-Nle-Gly-Arg-pNA) was 102.7 mA/min, the “cleavage rate mA/min” value ([2]; pH 8.25, MeSO2-D-CHG-Gly-Arg-pNA) was 382.2 mA/min and the “cleavage rate mA/min” value ([2]; pH 8.25, MeSO2-D-HHT-Gly-Arg-pNA) was 176.0 mA/min. The “cleavage rate mA/min” value ([2]; pH 8.5, MOC-D-Nle-Gly-Arg-pNA) was 104.3 mA/min, the “cleavage rate mA/min” value ([2]; pH 8.5, MeSO2-D-CHG-Gly-Arg-pNA) was 389.8 mA/min and the “cleavage rate mA/min” value ([2]; pH 8.5, MeSO2-D-HHT-Gly-Arg-pNA) was 182.1 mA/min. For the same compound, the “cleavage rate mA/min” value ([2]; pH 8.75, MOC-D-Nle-Gly-Arg-pNA) was 101.6 mA/min, the “cleavage rate mA/min” value ([2]; pH 8.75, MeSO2-D-CHG-Gly-Arg-pNA) was 395.6 mA/min and the “cleavage rate mA/min” value ([2]; pH 8.75, MeSO2-D-HHT-Gly-Arg-pNA) was 170.7 mA/min. The “cleavage rate mA/min” value ([2]; pH 9.0, MOC-D-Nle-Gly-Arg-pNA) was 97.3 mA/min, the “cleavage rate mA/min” value ([2]; pH 9.0, MeSO2-D-CHG-Gly-Arg-pNA) was 373.3 mA/min and the “cleavage rate mA/min” value ([2]; pH 9.0, MeSO2-D-HHT-Gly-Arg-pNA) was 164.1 mA/min. The “cleavage rate mA/min” value ([2]; pH 9.5, MOC-D-Nle-Gly-Arg-pNA) was 70.7 mA/min, the “cleavage rate mA/min” value ([2]; pH 9.5, MeSO2-D-CHG-Gly-Arg-pNA) was 255.6 mA/min and the “cleavage rate mA/min” value ([2]; pH 9.5, MeSO2-D-HHT-Gly-Arg-pNA) was 112.0 mA/min. The “cleavage rate mA/min” value ([2]; pH 10.0, MOC-D-Nle-Gly-Arg-pNA) was 68.3 mA/min, the “cleavage rate mA/min” value ([2]; pH 10.0, MeSO2-D-CHG-Gly-Arg-pNA) was 244.5 mA/min and the “cleavage rate mA/min” value ([2]; pH 10.0, MeSO2-D-HHT-Gly-Arg-pNA) was 110.1 mA/min.
